In patent US7411083B2, “Substituted acetic acid derivatives” (Wyeth, priority 2003, dated 2008):

Assays:
[1] = molecular target: T1, recombinant human plasminogen activator inhibitor-1 (PAI-1) (Homo sapiens, UniProt P05121); experiment: Screening for PAI-1 inhibition (residual tPA activity, Spectrozyme-tPA chromogenic substrate); assay type: biochemical; conditions: test compound at 100 Um; pH 6.6 buffer, 140 nM PAI-1, 70 nM tPA
T1 construct: purchased Molecular Innovations, Royal Oak, Mich
How it was run: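 PAI-1 at 140 nM, pH 6.6 buffer, preincubated 1 h at room temperature with compound (1-100 μM final, ≤0.2% DMSO), then 70 nM tPA added for 30 min. Residual tPA activity read by Spectrozyme-tPA absorbance at 405 nm at 0 and 60 min. Inhibition taken as residual tPA activity.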

[2] = molecular target: human PAI-1 (Homo sapiens, UniProt P05121); experiment: Assay for determining the IC50 of inhibition of PAI-1 (active PAI-1 bound to tPA-coated plate, 33B8 antibody detection); assay type: biochemical; conditions: values carry suffix (K), not explained; test compounds 1-50 μM, pH 7.5
Chain of human PAI-1 (P05121 24-402): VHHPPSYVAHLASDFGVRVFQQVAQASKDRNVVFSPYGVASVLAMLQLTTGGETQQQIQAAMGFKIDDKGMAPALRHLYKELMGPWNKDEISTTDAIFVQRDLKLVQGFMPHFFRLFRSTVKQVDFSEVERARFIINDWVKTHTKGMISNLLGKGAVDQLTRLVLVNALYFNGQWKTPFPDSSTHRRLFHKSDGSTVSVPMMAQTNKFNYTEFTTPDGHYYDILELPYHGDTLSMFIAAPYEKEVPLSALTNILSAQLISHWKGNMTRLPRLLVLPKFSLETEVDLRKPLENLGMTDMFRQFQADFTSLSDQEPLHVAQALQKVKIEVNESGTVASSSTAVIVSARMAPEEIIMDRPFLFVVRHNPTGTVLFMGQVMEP
Method: Assay for determining the IC50 of inhibition of PAI-1. This assay is based upon the non-SDS dissociable interaction between Tpa and active PAI-1. Assay plates are initially coated with human Tpa (10 μg/ml). Test compounds are dissolved in DMSO at 10 Mm, then diluted with physiologic buffer (Ph 7.5) to a final concentration of 1-50 μM. The test compounds are incubated with human PAI-1 (50 ng/ml) for 15 minutes at room temperature. The Tpa-coated plate is washed with a solution of 0.05% Tween 20 and 0.1% BSA, then the plate is blocked with a solution of 3% BSA. An aliquot of the test compound/PAI-1 solution is then added to the Tpa-coated plate, incubated at room temperature for 1 hour, and washed. Active PAI-1 bound to the plate is assessed by adding an aliquot of a 1:1000 dilution of the 33B8 monoclonal antibody against human PAI-1, and incubating the plate at room temperature for 1 hour (Molecular Innovations, Royal Oak, Mich.). The plate is again washed, and a solution of goat anti-mouse IgG-alkaline phosphatase conjugate is added at a 1:50,000 dilution in goat serum. The plate is incubated 30 minutes at room temperature, washed, and a solution of alkaline phosphatase substrate is added. The plate is incubated 45 minutes at room temperature, and color development is determined at OD405 nm. The quantitation of active PAI-1 bound to Tpa at varying concentrations of the test compound is used to determine the IC50. Results are analyzed using a logarithmic best-fit equation. The assay sensitivity is 5 ng/ml of human PAI-1 as determined from a standard curve ranging from 0-100 ng/ml.

T1 sequence (P05121 24-402): as above

Compound	inhibition at 100 µM [1] [%]	IC50 [2] [µM]
O=C(O)CO/N=C/c1cn(Cc2ccccc2)c2ccc(OCc3ccc(C(F)(F)F)cc3)cc12 [Compound 3, ({[(1E)-(1-benzyl-5-{[4-(trifluoromethyl)benzyl]oxy}-1H-indol-3-yl)methylidene]amino}oxy)acetic acid]	82	1.85
O=C(O)CO/N=C/c1cn(Cc2ccccc2)c2ccc(OCc3ccc(Br)cc3)cc12 [Compound 9, {[((1E)-{1-benzyl-5-[(4-bromobenzyl)oxy]-1H-indol-3-yl}methylidene)amino]oxy}acetic acid]	85	16.9
Cn1cc(/C=N/OCC(=O)O)c2cc(OCc3ccc(C(F)(F)F)cc3)ccc21 [Compound 32, ({[(1E)-(1-methyl-5-{[4-(trifluoromethyl)benzyl]oxy}-1H-indol-3-yl)methylidene]amino}oxy)acetic acid]	82	9.36
CC(C)Cc1ccc(OCC#Cc2ccc(/C=N/OCC(=O)O)cc2)cc1 [Compound 167, {[((1E)-{4-[3-(4-isobutylphenoxy)prop-1-ynyl]phenyl}methylidene)amino]oxy}acetic acid]	53	
CC(C)(C)c1ccc(OCC#Cc2cccc(/C=N/OCC(=O)O)c2)cc1 [Compound 168, {[((1E)-{3-[3-(4-tert-butylphenoxy)prop-1-ynyl]phenyl}methylidene)amino]oxy}acetic acid]	52	
O=C(O)CO/N=C/c1cccc(C#CCOc2ccc(Br)cc2)c1 [Compound 169, {[((1E)-{3-[3-(4-bromophenoxy)prop-1-ynyl]phenyl}methylidene)amino]oxy}acetic acid]	60	
O=C(O)CO/N=C/c1cccc(C#CCOc2cc(C(F)(F)F)cc(C(F)(F)F)c2)c1 [Compound 170, ({[(1E)-(3-{3-[3,5-bis(trifluoromethyl)phenoxy]prop-1-ynyl}phenyl)methylidene]amino}oxy)acetic acid]	73	
O=C(O)CO/N=C/c1cccc(C#CCOc2cc(Cl)cc(Cl)c2)c1 [Compound 171, {[((1E)-{3-[3-(3,5-dichlorophenoxy)prop-1-ynyl]phenyl}methylidene)amino]oxy}acetic acid]	69	
O=C(O)CO/N=C/c1cccc(C#CCOc2cccc(Cl)c2)c1 [Compound 172, {[((1E)-{3-[3-(3-chlorophenoxy)prop-1-ynyl]phenyl}methylidene)amino]oxy}acetic acid]	44	
CC(C)Cc1ccc(OCC#Cc2cccc(/C=N/OCC(=O)O)c2)cc1 [Compound 173, {[((1E)-{3-[3-(4-isobutylphenoxy)prop-1-ynyl]phenyl}methylidene)amino]oxy}acetic acid]	56	
